Assay results reported in patent publication US20250302781A1, “METHOD FOR PRETREATING RELAPSING CANCER” (priority 2022, published 2025).

Assays:
WSU-NHL cell line = test: WST 1 colorimetric cell proliferation assay, WSU-NHL cell line; assay type: cell-based, human; details: for effect of valproic acid pretreatment on cell proliferation (percent growth of treated cells): 48 h pretreatment 1 mM valproic acid
Description: (§1) In this example the combined effect of valproic acid and three different compounds as well as the single treatment on the growth of two cell lines were measured by WST 1 assay.
(§2) The cell lines used where: • SU DHL 8: human B cell lymphoma, and • WSU NHL: human B cell lymphoma
(§3) The WST 1 colorimetric assay comprised providing suspended cells (5000 cells/well) in the wells of a well plate. Tetrazolium salt (WST 1) was added to the cells and thereby colored the fluid in the wells red. Live cells reduce the tetrazolium salt via intermediate electron acceptors and forms a formazan product and the fluid in the cells turn yellow. The extent of color change reflects the proliferation of the cells and is read out as optical absorbance at 420 nm. Both cell lines were determined to be able to tolerate concentrations of up to 1% Dimethyl sulfoxide (DMSO), and this DMSO concentration was used as negative control. Additionally, 10% DMSO was used as positive control.
(§4) The cells of each cell line were incubated in a pretreatment step with 1 mM valproic acid for 48 hours followed by a treatment step with the respective compound for 24 or 48 hours, as shown in table 1 below: […]

[1] = system: SU-DHL cell line (SU DHL 8); test: WST 1 colorimetric cell proliferation assay, SU-DHL cell line; assay type: cell-based, human; details: for effect of valproic acid pretreatment on cell proliferation (percent growth of treated cells): 48 h pretreatment 1 mM valproic acid
Description: as §1, §2
as §3, with “Both cell lines were determined to be able to tolerate concentrations of up to 1% Dimethyl sulfoxide (DMSO), and this DMSO concentration was used as negative control.” left out
as §4

[2] = FIG. 2B, 5 μM of compound 48 h after 48 h 1 mM valproic acid, normalized to untreated control cells

Nc1ccn([C@@H]2O[C@H](CO)[C@@H](O)C2(F)F)c(=O)n1 [gemcitabine, Cytidine, 2′-deoxy-2′,2′-difluoro-]
effect on cell proliferation after valproic acid pretreatment (WSU-NHL cell line; FIG. 1B, 5 nM gemcitabine 24 h after 48 h 1 mM valproic acid, normalized to untreated control cells): Especially significant effects | effect on cell proliferation after valproic acid pretreatment (WSU-NHL cell line; FIG. 2B, 5 nM gemcitabine 48 h after 48 h 1 mM valproic acid, normalized to untreated control cells): Especially significant effects | cell proliferation, combination with VPA ([1]; FIG. 4A, 25 nM gemcitabine 48 h after 48 h 1 mM VPA, normalized to 1/DMSO treated cells): killed all cancer cells

CCCC(CCC)C(=O)O [valproic acid]
effect of valproic acid pretreatment on cell proliferation (percent growth of treated cells) (WSU-NHL cell line; FIG. 1A, then 24 h treatment with bendamustine, gemcitabine or carboplatin, normalized to 1% DMSO treated cells): increased the effect of the 24 h treatment | effect of valproic acid pretreatment on cell proliferation (percent growth of treated cells) (WSU-NHL cell line; FIG. 1B, then 24 h treatment with the respective compounds, normalized to untreated control cells): increased the effect of the 24 h treatment | effect of valproic acid pretreatment on cell proliferation (percent growth of treated cells) (WSU-NHL cell line; FIG. 2A, then 48 h treatment with the respective compounds, normalized to 1/DMSO treated cells): increased the effect of the 48 h treatment | effect of valproic acid pretreatment on cell proliferation (percent growth of treated cells) (WSU-NHL cell line; FIG. 2B, then 48 h treatment with the respective compounds, normalized to untreated control cells): increased the effect of the 48 h treatment | effect of valproic acid pretreatment on cell proliferation (percent growth of treated cells) ([1]; FIG. 3A, then 24 h treatment with the respective compounds, normalized to 1% DMSO treated cells): increased the effect of the 24 h treatment | effect of valproic acid pretreatment on cell proliferation (percent growth of treated cells) ([1]; FIG. 3B, then 24 h treatment with the respective compounds, normalized to untreated control cells): increased the effect of the 24 h treatment | effect of valproic acid pretreatment on cell proliferation (percent growth of treated cells) ([1]; FIG. 4A, then 48 h treatment with the respective compounds, normalized to 1/DMSO treated cells): increased the effect of the 48 h treatment | effect of valproic acid pretreatment on cell proliferation (percent growth of treated cells) ([1]; FIG. 4B, then 48 h treatment with the respective compounds, normalized to untreated control cells): increased the effect of the 48 h treatment

N.N.O=C([O-])C1(C(=O)[O-])CCC1.[Pt+2] [carboplatin, Platinum, diammine[1,1-cyclobutanedicarboxylato(2-)-KO,KO″ ]-, (SP-4-2)-]
effect on cell proliferation after valproic acid pretreatment (WSU-NHL cell line; [2]): Especially significant effects | cells left alive, combination with VPA ([1]; FIG. 4B, 5 μM carboplatin 48 h after 48 h 1 mM VPA, normalized to untreated control cells): about 10 cells | cells left alive, combination with VPA ([1]; FIG. 4B, 25 μM carboplatin 48 h after 48 h 1 mM VPA, normalized to untreated control cells): about 10 cells

Cn1c(CCCC(=O)O)nc2cc(N(CCCl)CCCl)ccc21 [bendamustine, 1H-Benzimidazole-2-butanoic acid, 5-[bis(2-chloroethyl)amino]-1-methyl-]
effect on cell proliferation after valproic acid pretreatment (WSU-NHL cell line; FIG. 1B, 5 μM bendamustine 24 h after 48 h 1 mM valproic acid, normalized to untreated control cells): Especially significant effects | effect on cell proliferation after valproic acid pretreatment (WSU-NHL cell line; [2]): Especially significant effects | cell proliferation, combination with VPA ([1]; FIG. 4A, 25 μM bendamustine 48 h after 48 h 1 mM VPA, normalized to 1/DMSO treated cells): killed all cancer cells
